{"source": "patent US10842892B2", "about": "“Methods and apparatus for synthesizing imaging agents, and intermediates thereof” (Lantheus Medical Imaging, Inc., priority 2010, dated 2020)", "key": {"anesthetized naive dogs": {"system": "anesthetized naive dogs", "test": "cardiovascular changes in anesthetized naive dogs", "type": "in vivo, dog", "settings": "intravenous injection, unpublished data"}, "[1]": {"system": "stress induced myocardial perfusion abnormalities", "test": "rest-stress imaging agent 1 PET versus Tc-99m Sestamibi SPECT MPI, single center", "type": "in vivo, human", "settings": "myocardial segments supplied by diseased coronary arteries, 13 patients", "procedure": "Thirteen patients, from a single center, underwent rest-stress Tc-99m Sestamibi SPECT MPI, rest-stress imaging agent 1 PET MPI and coronary angiography. In each patient, 17 myocardial segments were visually scored for rest and stress images by independent observers who were blinded to all other results. For each patient, summed stress scores (SSS), summed rest scores (SRS), and summed difference scores (SDS) were determined from segmental scores. Percent narrowing in each coronary artery was evaluated blindly and 70% luminal diameter narrowing was considered significant."}, "[2]": {"test": "syringe adsorption of imaging agent 1", "type": "physicochemical", "settings": "three hours, ambient temperature", "procedure": "The two sets of filled syringes were maintained at ambient temperature and humidity for a period of three hours, at which time the contents were injected into a clean 5 cc glass vial; a consistent volume of imaging agent 1 (0.1 mL) remained in the hub of each syringe. The total radioactivity content of both the vial and syringe were measured, decay corrected and the percent retention calculated. The difference in percent retained activity is statistically significant at the 95% confidence level (i.e. Prob>|t| 0.0005)."}, "control and MI rabbits": {"system": "control and MI rabbits", "test": "cardiovascular evaluation (ECG, arterial pressure) after injection in control and MI rabbits", "type": "in vivo, rabbit", "procedure": "PET images and cardiovascular parameters were evaluated in both normal and MI rabbits. Prior to imaging, the rabbit was anesthetized with ketamine (25 mg/Kg, im) and xylazine (5 mg/Kg, im) and the marginal ear vein was catheterized for imaging agent 1 injection. The right femoral artery was isolated and canulated with a Millar catheter (SPC340, Millar Instruments, Houston, Tex.) for arterial pressure measurement. Then the animal was positioned in a microPET camera (Focus220, CTI Molecular Imaging, Inc. Knoxville, Tenn.) for cardiac imaging. The Millar catheter was connected to a computer driven data acquisition system (MP35, BIOPAC Systems, Goleta, Calif.) for recording of mean arterial pressure (MAP), and systolic and diastolic arterial pressure (SAP and DAP). In addition, electrocardiogram (ECG) was also recorded with 3 non-invasive limb leads in lead II configuration using the BIOPAC system. Heart rate (HR) and QT interval were derived from ECG recording. After a stabilization period, cardiovascular parameters: MAP, SBP, DBP and ECG, were recorded 5 minutes before imaging agent 1 intravenous injection (˜1.5 mCi) and the recording continued for additional 20 minutes post-injection. The rabbit was imaged for 30 minutes.\nData are expressed as mean±SD and unpaired student t-test (assuming unequal variances) was used for comparison of baseline values between control and MI rabbits. p<0.05 was considered statistically significant. At each timepoint (before and 1-, 5-, 10- and 20-minute after imaging agent 1 injection), MAP, SAP and DAP measured intraarterially averaged every 10-second, and HR and QTc interval derived from ECG recording averaged every 12 heart beats. The QT interval was manually defined by one investigator and QTc was generated from QT corrected by RR interval using Fridericia method (QTc=QT/RR1/3).9"}, "patients": {"system": "patients", "test": "Phase 2 clinical safety of imaging agent 1 injection", "type": "in vivo, human"}, "[3]": {"test": "syringe component adsorption of imaging agent 1", "type": "physicochemical", "settings": "B&D syringe, three hours", "procedure": "To further identify the contact surface material that contributed to syringe retention of imaging agent 1, three additional B&D syringes were each filled with a 1 mL solution of imaging agent 1 then maintained at ambient temperature and humidity for a period of three hours. Following transfer of the individual doses as described in Example 1, the syringe barrel and butyl rubber tip plunger were then separated, measured for retained radioactivity and decay corrected. The difference in percent retained activity is statistically significant at the 95% confidence level (i.e. Prob>|t| 0.0017)."}}, "note": "Values joined by “and” are separate entries in the source; they are usually repeats but may differ in a detail not shown here. Identical values can stand only once."}
{"smiles": "CC(C)(C)n1ncc(OCc2ccc(COCC[18F])cc2)c(Cl)c1=O", "note": "[imaging agent 1, 2-t-butyl-4-chloro-5-[4-(2-(^18F)fluoroethoxymethyl)-benzyloxy]-2H-pyridazin-3-1]", "values": [{"measurement": "dose without cardiovascular changes (MAP, HR, left ventricular contractility etc)", "setting": "anesthetized naive dogs", "result": "≤ 0.01", "unit": "mg/kg"}, {"measurement": "SDS", "setting": "[1]", "result": "12.3 ± 7"}, {"measurement": "SRS", "setting": "[1]", "result": "3.8 ± 6.6"}, {"measurement": "SSS", "setting": "[1]", "result": "16.1 ± 7.8"}, {"measurement": "Retained Activity in syringe", "setting": "[2]; B&D (Becton & Dickinson) three-component syringe", "result": "35.2% and 38.9% and 32.4%"}, {"measurement": "Retained Activity in syringe", "setting": "[2]; HSW (Henke Sass Wolf) two-component syringe", "result": "11.3% and 7.0% and 5.1%"}, {"measurement": "QTc, change from baseline after injection", "setting": "control and MI rabbits; Control rabbits (n = 3), 1 min", "result": "2 ± 15", "unit": "ms"}, {"measurement": "QTc, change from baseline after injection", "setting": "control and MI rabbits; Control rabbits (n = 3), 5 min", "result": "-1 ± 11", "unit": "ms"}, {"measurement": "QTc, change from baseline after injection", "setting": "control and MI rabbits; Control rabbits (n = 3), 10 min", "result": "6 ± 20", "unit": "ms"}, {"measurement": "QTc, change from baseline after injection", "setting": "control and MI rabbits; Control rabbits (n = 3), 20 min", "result": "9 ± 15", "unit": "ms"}, {"measurement": "Diastolic AP, change from baseline after injection", "setting": "control and MI rabbits; Control rabbits, 1 min", "result": "0 ± 1", "unit": "mmHg"}, {"measurement": "Heart rate, change from baseline after injection", "setting": "control and MI rabbits; Control rabbits, 1 min", "result": "−4 ± 2", "unit": "beat/min"}, {"measurement": "Mean AP, change from baseline after injection", "setting": "control and MI rabbits; Control rabbits, 1 min", "result": "0 ± 0", "unit": "mmHg"}, {"measurement": "Systolic AP, change from baseline after injection", "setting": "control and MI rabbits; Control rabbits, 1 min", "result": "0 ± 1", "unit": "mmHg"}, {"measurement": "Diastolic AP, change from baseline after injection", "setting": "control and MI rabbits; Control rabbits, 5 min", "result": "−1 ± 2", "unit": "mmHg"}, {"measurement": "Heart rate, change from baseline after injection", "setting": "control and MI rabbits; Control rabbits, 5 min", "result": "−2 ± 1", "unit": "beat/min"}, {"measurement": "Mean AP, change from baseline after injection", "setting": "control and MI rabbits; Control rabbits, 5 min", "result": "−2 ± 0", "unit": "mmHg"}, {"measurement": "Systolic AP, change from baseline after injection", "setting": "control and MI rabbits; Control rabbits, 5 min", "result": "−2 ± 1", "unit": "mmHg"}, {"measurement": "Diastolic AP, change from baseline after injection", "setting": "control and MI rabbits; Control rabbits, 10 min", "result": "0 ± 5", "unit": "mmHg"}, {"measurement": "Heart rate, change from baseline after injection", "setting": "control and MI rabbits; Control rabbits, 10 min", "result": "−2 ± 4", "unit": "beat/min"}, {"measurement": "Mean AP, change from baseline after injection", "setting": "control and MI rabbits; Control rabbits, 10 min", "result": "−2 ± 3", "unit": "mmHg"}, {"measurement": "Systolic AP, change from baseline after injection", "setting": "control and MI rabbits; Control rabbits, 10 min", "result": "−1 ± 6", "unit": "mmHg"}, {"measurement": "Diastolic AP, change from baseline after injection", "setting": "control and MI rabbits; Control rabbits, 20 min", "result": "0 ± 5", "unit": "mmHg"}, {"measurement": "Heart rate, change from baseline after injection", "setting": "control and MI rabbits; Control rabbits, 20 min", "result": "−4 ± 4", "unit": "beat/min"}, {"measurement": "Mean AP, change from baseline after injection", "setting": "control and MI rabbits; Control rabbits, 20 min", "result": "−1 ± 6", "unit": "mmHg"}, {"measurement": "Systolic AP, change from baseline after injection", "setting": "control and MI rabbits; Control rabbits, 20 min", "result": "0 ± 5", "unit": "mmHg"}, {"measurement": "QTc, change from baseline after injection", "setting": "control and MI rabbits; MI rabbits (n = 4), 1 min", "result": "8 ± 5", "unit": "ms"}, {"measurement": "QTc, change from baseline after injection", "setting": "control and MI rabbits; MI rabbits (n = 4), 5 min", "result": "4 ± 6", "unit": "ms"}, {"measurement": "QTc, change from baseline after injection", "setting": "control and MI rabbits; MI rabbits (n = 4), 10 min", "result": "4 ± 8", "unit": "ms"}, {"measurement": "QTc, change from baseline after injection", "setting": "control and MI rabbits; MI rabbits (n = 4), 20 min", "result": "3 ± 12", "unit": "ms"}, {"measurement": "Diastolic AP, change from baseline after injection", "setting": "control and MI rabbits; MI rabbits, 1 min", "result": "1 ± 1", "unit": "mmHg"}, {"measurement": "Heart rate, change from baseline after injection", "setting": "control and MI rabbits; MI rabbits, 1 min", "result": "6 ± 5", "unit": "beat/min"}, {"measurement": "Mean AP, change from baseline after injection", "setting": "control and MI rabbits; MI rabbits, 1 min", "result": "2 ± 1", "unit": "mmHg"}, {"measurement": "Systolic AP, change from baseline after injection", "setting": "control and MI rabbits; MI rabbits, 1 min", "result": "1 ± 2", "unit": "mmHg"}, {"measurement": "Diastolic AP, change from baseline after injection", "setting": "control and MI rabbits; MI rabbits, 5 min", "result": "2 ± 2", "unit": "mmHg"}, {"measurement": "Heart rate, change from baseline after injection", "setting": "control and MI rabbits; MI rabbits, 5 min", "result": "3 ± 8", "unit": "beat/min"}, {"measurement": "Mean AP, change from baseline after injection", "setting": "control and MI rabbits; MI rabbits, 5 min", "result": "2 ± 2", "unit": "mmHg"}, {"measurement": "Systolic AP, change from baseline after injection", "setting": "control and MI rabbits; MI rabbits, 5 min", "result": "2 ± 2", "unit": "mmHg"}, {"measurement": "Diastolic AP, change from baseline after injection", "setting": "control and MI rabbits; MI rabbits, 10 min", "result": "1 ± 1", "unit": "mmHg"}, {"measurement": "Heart rate, change from baseline after injection", "setting": "control and MI rabbits; MI rabbits, 10 min", "result": "1 ± 6", "unit": "beat/min"}, {"measurement": "Mean AP, change from baseline after injection", "setting": "control and MI rabbits; MI rabbits, 10 min", "result": "−1 ± 2", "unit": "mmHg"}, {"measurement": "Systolic AP, change from baseline after injection", "setting": "control and MI rabbits; MI rabbits, 10 min", "result": "0 ± 1", "unit": "mmHg"}, {"measurement": "Diastolic AP, change from baseline after injection", "setting": "control and MI rabbits; MI rabbits, 20 min", "result": "2 ± 2", "unit": "mmHg"}, {"measurement": "Heart rate, change from baseline after injection", "setting": "control and MI rabbits; MI rabbits, 20 min", "result": "−7 ± 10", "unit": "beat/min"}, {"measurement": "Mean AP, change from baseline after injection", "setting": "control and MI rabbits; MI rabbits, 20 min", "result": "2 ± 3", "unit": "mmHg"}, {"measurement": "Systolic AP, change from baseline after injection", "setting": "control and MI rabbits; MI rabbits, 20 min", "result": "1 ± 7", "unit": "mmHg"}, {"measurement": "effect on MAP, SAP and DAP", "setting": "control and MI rabbits; MI rabbits, during and after administration", "result": "no alterations of these parameters were observed"}, {"measurement": "effect on ECG waveform, cardiac rhythm, HR and QTc interval", "setting": "control and MI rabbits; control or MI rabbits, 1-, 5-, 10- and 20-minute post iv injection", "result": "did not alter"}, {"measurement": "effect on MAP, SAP and DAP", "setting": "control and MI rabbits; control rabbits", "result": "did not induce changes"}, {"measurement": "AEs judged to be related to the study drug", "setting": "patients; 143 patients", "result": 7}, {"measurement": "patients with AEs judged to be related to the study drug", "setting": "patients; 143 patients", "result": 2}, {"measurement": "seriousness of related AEs", "setting": "patients; 143 patients", "result": "none were serious"}, {"measurement": "treatment emergent adverse events (AEs) reported", "setting": "patients; 143 patients", "result": 100}, {"measurement": "ECG at rest: effect on heart rate, PR interval, QRS duration, QTcF duration", "setting": "patients; human, in vivo", "result": "no evidence of any clinically relevant effect"}, {"measurement": "patients reporting treatment emergent adverse events", "setting": "patients; of 143 patients", "result": 61}, {"measurement": "Retained Activity in syringe part", "setting": "[3]; Barrel", "result": "6.9% and 5.5% and 7.0%"}, {"measurement": "Retained Activity in syringe part", "setting": "[3]; Plunger (butyl rubber tip)", "result": "30.9% and 27.7% and 21.8%"}]}
